Test results: PMC6270453, “One Lignanoid Compound and Four Triterpenoid Compounds with Anti-Inflammatory Activity from the Leaves of Elaeagnus oldhamii Maxim” (Molecules, 2013)
Values after ≈ are worked out from the molar mass of the structure shown. “Also recorded” adds a separate entry of the source.

Legend:
[1] = tested on: LPS-induced NO production in macrophages (RAW264.7 cells); test: Measurement of nitric oxide/nitrite (Griess reaction) in LPS-stimulated macrophages; assay type: cell-based, murine; details: for NO Inhibition (% of Control) / No Level: LPS 100 ng/mL, 24 h, mean ± S.D.; for No Level: nitrite in medium, LPS alone 30.3 ± 2.2, in µM
Procedure: (§1) A murine macrophage cell line RAW264.7 (BCRC No. 60001) was purchased from the Bioresources Collection and Research Center (BCRC, Hsinchu, Taiwan) of the Food Industry Research and Development Institute (Hsinchu, Taiwan). Cells were cultured in plastic dishes containing Dulbecco’s Modified Eagle Medium (DMEM, Sigma) supplemented with 10% fetal bovine serum (FBS, Sigma) in a CO2 incubator (5% CO2 in air) at 37 °C and subcultured every 3 days at a dilution of 1:5 using 0.05% trypsin-0.02% EDTA in Ca^2+-, Mg^2+-free phosphate-buffered saline (DPBS).
NO production was indirectly assessed by measuring the nitrite levels in the cultured media and serum determined by a colorimetric method based on the Griess reaction. The cells were incubated with different concentration of samples in the presence of LPS (100 ng/mL) at 37 °C for 24 h. Then, cells were dispensed into 96-well plates, and 100 μL of each supernatant was mixed with the same volume of Griess reagent (1% sulfanilamide, 0.1% naphthylethylenediamine dihydrochloride and 5% phosphoric acid) and incubated at room temperature for 10 min, the absorbance was measured at 540 nm with a Micro-Reader (Molecular Devices). By using sodium nitrite to generate a standard curve, the concentration of nitrite was measured form absorbance at 540 nm.
IC50 values were estimated using a non-linear regression algorithm (Sigma Plot 12.0; SPSS Inc. Chicago, IL, USA). Statistical evaluation was carried out by one-way ANOVA followed by Scheffe’s multiple range tests.

RAW264.7 cells = test: Cell viability (MTT) in the presence of LPS; assay type: cell-based, murine; details: for Cell Viability (% of Control): RAW264.7, 100 ng/mL LPS, 24 h, MTT, mean ± S.D.
Procedure: as §1
Cells (2 × 10^5) were cultured in 96-well plate containing DMEM supplemented with 10% FBS for 1 day to become nearly confluent. Then cells were cultured with compounds 1–5 in the presence of 100 ng/mL LPS (lipopolysaccharide) for 24 h. After that, the cells were washed twice with DPBS and incubated with 100 μL of 0.5 mg/mL MTT for 2 h at 37 °C testing for cell viability. The medium was then discarded and 100 μL dimethyl sulfoxide (DMSO) was added. After 30-min incubation, absorbance at 570 nm was read using a microplate reader (Molecular Devices, Sunnyvale, CA, USA).

In the case of COc1cc([C@H]2Oc3cc(/C=C\CO)ccc3O[C@@H]2C)ccc1O [Compound 1, isoamericanol B], the IC50 ([1]; Mus musculus, RAW264.7, 24 h, LPS-stimulated RAW264.7 cells, non-linear regression, read-out: IC50 for inhibition of nitrite production) is reported as about 10.3 µg/mL (≈ 31.4 µM), the “NO Inhibition (% of Control)” value ([1]; dose 2.5 μg/mL) is reported as 42.0 ± 1.6 % of Control and the “No Level” value ([1]; dose 2.5 μg/mL) is reported as 17.6 ± 0.5. The “NO Inhibition (% of Control)” value ([1]; dose 5 μg/mL) was 42.3 ± 2.6 % of Control, the “No Level” value ([1]; dose 5 μg/mL) was 17.5 ± 08 and the “NO Inhibition (% of Control)” value ([1]; dose 10 μg/mL) was 49.7 ± 1.4 % of Control. The “No Level” value ([1]; dose 10 μg/mL) was 15.2 ± 0.4, the “NO Inhibition (% of Control)” value ([1]; dose 20 μg/mL) was 60.4 ± 1.3 % of Control and the “No Level” value ([1]; dose 20 μg/mL) was 12.0 ± 0.4. For the same compound, the “Cell Viability (% of Control)” value (RAW264.7 cells; dose 2.5 μg/mL) was 100.6 ± 5.9 % of Control, the “Cell Viability (% of Control)” value (RAW264.7 cells; dose 5 μg/mL) was 97.6 ± 4.3 % of Control and the “Cell Viability (% of Control)” value (RAW264.7 cells; dose 10 μg/mL) was 90.7 ± 3.3 % of Control. The “Cell Viability (% of Control)” value (RAW264.7 cells; dose 20 μg/mL) was 88.8 ± 2.6 % of Control and the “Change of cell viability (in words)” value (RAW264.7 cells; tested concentrations 2.5 to 20 μg/mL) was “did not significantly change cell viability; also recorded: did not change significantly cell viability”.
